≈ marks a conversion by molar mass, not a printed value. Where “and” joins values, the source holds several entries; their conditions need not be identical. Equal entries are not always repeated. Where two headings read alike, the source gives them in different places.
Columns and labels:
[1] = tested on: Enterococcus faecalis ATCC 51299 (vanA-positive; vancomycin-resistant); assay: In vitro antibacterial activity, MIC (UCL), VRE; assay type: cell-based
Experimental: (§1) Staphylococcus aureus NCTC 13373 (mecA-positive; methicillin-resistant, NCTC 13373) was supplied by the National Collection of Type Cultures (NCTC), Public Health England, United Kingdom. Other organisms, S. aureus ATCC 25923 (methicillin-susceptible) and Enterococcus faecalis ATCC 51299 (vanA-positive; vancomycin-resistant), were obtained from the American Type Culture Collection (ATCC) via LGC Standards, UK. A suspension of each organism was prepared from an overnight plate culture (tryptone soya agar) in phosphate-buffered saline (PBS) and adjusted to an absorbance reading at 600 nm of 0.1, which is approximately equivalent to 1 × 10^8 colony-forming units (CFU) per mL. The cultures were further diluted 1:100 in isosensitest broth (Oxoid, United Kingdom) before 100 μL was used to inoculate each well of a 96-well plate that contained diluted samples of the OSA series. Compounds were evaluated over a 2-fold dilution range from 32 to 0.03 μg/mL. Stocks of the samples were prepared in 100% DMSO at […] before being diluted in isosenstitest broth. The highest concentration of DMSO present was 2%, which has been previously shown not to inhibit the growth of the microorganisms (data not shown). […] Vancomycin was used as a quality control compound.

[2] = tested on: Staphylococcus aureus NCTC 13373 (mecA-positive; methicillin-resistant); assay: In vitro antibacterial activity, MIC (UCL School of Pharmacy assay), MRSA; assay type: cell-based; settings: for MIC: Staphylococcus aureus
Experimental: as §1

[3] = tested on: S. aureus ATCC 25923 (methicillin-susceptible); assay: In vitro antibacterial activity, MIC (UCL), MSSA; assay type: cell-based, Staphylococcus aureus; settings: for MIC: Staphylococcus aureus
Experimental: as §1

[4] = tested on: PMM (primary mouse macrophages); assay: Toxicity against PMM; assay type: cell-based
Experimental: (§2) ADME and toxicity for compounds were measured according to procedures outlined in the manuscript submitted in parallel to this one;2 other procedures were used for those compounds analysed by Monash University (in vitro ADME) or UCL (toxicity), both described in the main

[5] = tested on: MRC-5SV2 (human lung fibroblast cell line); assay: Toxicity against MRC-5SV2; assay type: cell-based
Experimental: as §2

[6] = UCL assay, read-out: MRSA MIC (ug/mL) (UCL)
[7] = UCL assay, read-out: MSSA MIC (ug/mL) (UCL)

| SMILES | PMM TC50 [4] | MRC5 TC50 [5] | MRSA MIC [2] | MSSA MIC [3] | PMM TC50 ([4]; PMM) | MRC5 TC50 ([5]; MRC5 cells) | MIC [2, 6] | MIC [3, 7] | other results |
| --- | --- | --- | --- | --- | --- | --- | --- | --- | --- |
| c1cnc(-c2nc3n(c2-c2ccc4occc4c2)CCC3)cn1 [compound 873] |  |  |  |  |  |  |  |  | MIC ([1]; read-out: VRE MIC): > 32 µg/mL; activity against MRSA, in words [2]: inactive; MIC ([2]; read-out: MRSA MIC): > 32 µg/mL; MIC ([3]; read-out: MSSA MIC): > 32 µg/mL |
| c1ccc(-c2nc3n(c2-c2ccncc2)CCC3)nc1 [compound 1072] | 16.8 µg/mL | 16.8 µg/mL | > 32 µg/mL and 32 µg/mL | > 32 µg/mL |  |  |  |  |  |
| N#Cc1ccc(-c2c(-c3ccccn3)nc3n2CCC3)cn1 [compound 1075] | 18.4 µg/mL | 18.4 µg/mL | > 32 µg/mL and 32 µg/mL | > 32 µg/mL |  |  |  |  |  |
| Cc1ccc2nc(-c3ccccc3)c(CNc3cccc(C(F)(F)F)c3)n2c1 [OSA_001028] |  |  |  |  | 64 µM | 64 µM | > 32 µg/mL | > 32 µg/mL |  |
| COc1ccn2c(Nc3ccccc3F)c(-c3ccccn3)nc2c1 [compound 851] |  |  | 8 µg/mL | 4 µg/mL |  |  |  |  | VRE MIC [1]: 16 µg/mL |
| Cc1ccc2nc(-c3ccccc3)c(CNc3cccc(C(F)(F)F)c3)n2c1 [compound 1028] | 24.4 µg/mL | 24.4 µg/mL | > 32 µg/mL and 32 µg/mL | > 32 µg/mL |  |  |  |  |  |
| CCCCN(Cc1c(-c2ccccc2)nc2ccc(C)cn12)c1cccc(C(F)(F)F)c1 [OSA_001029] |  |  |  |  | 8 µM | 1.19 µM | 8 µg/mL (≈ 18.3 µM) | 8 µg/mL (≈ 18.3 µM) |  |
| N#Cc1ccc(-c2c(-c3ccccn3)nc3n2CCC3)cn1 [OSA_001075] |  |  |  |  | 64 µM | 64 µM | > 32 µg/mL | > 32 µg/mL |  |
| Cc1ccc2nc(-c3ccccc3)c(CNc3ccc(F)cc3)n2c1 [OSA_001027] |  |  |  |  | 64 µM | 64 µM | > 32 µg/mL | > 32 µg/mL |  |
| N#Cc1ccc(-c2c(-c3ccccn3)nc3n2CCC3)cc1C(F)(F)F [OSA_001077] |  |  |  |  | 64 µM | 64 µM | > 32 µg/mL | > 32 µg/mL |  |
| COc1cc(-c2c(-c3ccccn3)nc3n2CCC3)ccc1C#N [OSA_001076] |  |  |  |  | 64 µM | 27.86 µM | > 32 µg/mL | > 32 µg/mL |  |
| c1ccc(-c2nc3n(c2-c2ccncc2)CCC3)nc1 [OSA_001072] |  |  |  |  | 64 µM | 64 µM | > 32 µg/mL | > 32 µg/mL |  |
| Fc1ccc(-c2c(-c3ccccn3)nc3n2CCC3)cc1 [compound 1053] | 8.9 µg/mL | 2.1 µg/mL | > 32 µg/mL and 32 µg/mL | > 32 µg/mL |  |  |  |  |  |
| Fc1ccc(NCc2c(-c3ccccn3)nc3ccccn23)cc1 [compound 1019] | 20.4 µg/mL | 20.4 µg/mL | 32 µg/mL |  |  |  |  |  | MIC ([2]; read-out: MRSA MIC): > 32 µg/mL; MIC ([3]; read-out: MSSA MIC): > 32 µg/mL |
| CS(=O)(=O)c1ccc2nc(-c3ccccn3)c(Nc3ccc(F)cc3)n2c1 [compound 1020] | 12.2 µg/mL | 24.5 µg/mL | > 32 µg/mL and 32 µg/mL | > 32 µg/mL |  |  |  |  |  |
| CC(=O)N(c1ccc(F)cc1)c1c(-c2ccccn2)nc2ccccn12 [compound 1021] | 22.2 µg/mL | 22.2 µg/mL | 32 µg/mL |  |  |  |  |  | MIC ([2]; read-out: MRSA MIC): > 32 µg/mL; MIC ([3]; read-out: MSSA MIC): > 32 µg/mL |
| Cc1ccn2cc(-c3ccccn3)nc2c1 [compound 1030] | 13.4 µg/mL | 4.6 µg/mL | > 32 µg/mL and 32 µg/mL | > 32 µg/mL |  |  |  |  |  |
| N#Cc1ccc(-c2c(-c3ccccn3)nc3n2CCC3)cc1C(F)(F)F [compound 1077] | 22.7 µg/mL | 22.7 µg/mL | > 32 µg/mL and 32 µg/mL | > 32 µg/mL |  |  |  |  |  |
| Cc1ccn2cc(-c3ccccn3)nc2c1 [OSA_001030] |  |  |  |  | 64 µM | 22.11 µM | > 32 µg/mL | > 32 µg/mL |  |
| FC(F)(F)c1ccc(-c2c(-c3ccccn3)nc3n2CCC3)cc1 [OSA_001052] |  |  |  |  | 32 µM | 8.17 µM | 16 µg/mL (≈ 48.6 µM) | 16 µg/mL (≈ 48.6 µM) |  |
| c1cnc(-c2nc3n(c2-c2ccc4occc4c2)CCC3)cn1 [OSA_000873] |  |  |  |  |  |  |  |  | MIC ([1]; read-out: VRE MIC (UCL)): > 32 µg/mL; MIC ([2]; UCL, read-out: MRSA MIC (UCL)): > 32 µg/mL; MIC ([3]; read-out: MSSA MIC (UCL)): > 32 µg/mL |
